Measurements as given in US7659404B2, “Broad spectrum 2-(substituted-amino)-benzothiazole sulfonamide HIV protease inhibitors” (Tibotec Pharmaceuticals Ltd., priority 2001, dated 2010).
Read-outs that look alike come from different tables or passages of the source.

What was measured:
wild type virus (IIIB) = assay: HIV-AVE-MT4-MTT cellular assay, wild type virus (IIIB); format: cell-based; conditions: for EC50: Human immunodeficiency virus 1, IIIB
Method: (§1) HIV- or mock-infected MT4 cells were incubated for five days in the presence of various concentrations of the inhibitor. At the end of the incubation period, all HIV-infected cells have been killed by the replicating virus in the control cultures in the absence of any inhibitor. Cell viability is measured by measuring the concentration of MTT, a yellow, water soluble tetrazolium dye that is converted to a purple, water insoluble formazan in the mitochondria of living cells only. Upon solubilization of the resulting formazan crystals with isopropanol, the absorbance of the solution is monitored at 540 nm. The values correlate directly to the number of living cells remaining in the culture at the completion of the five day incubation. The inhibitory activity of the compound was monitored on the virus-infected cells and was expressed as EC50 and EC90. These values represent the amount of the compound required to protect 50% and 90%, respectively, of the cells from the cytopathogenic effect of the virus. The toxicity of the compound was measured on the mock-infected cells and was expressed as CC50, which represents the concentration of compound required to inhibit the growth of the cells by 50%. The selectivity index (SI) (ratio CC50/EC50) is an indication of the selectivity of the anti-HIV activity of the inhibitor.

virus strain F (R13025) = assay: microbe, parasite or virus in culture; format: cell-based, HIV; conditions: for EC50: Human immunodeficiency virus 1, MT4, read-out: HIV-AVE-MT4-MTT-R13025-2-002 pEC50, virus strain F (R13025), MT4 cells, MTT (converted)
Method: as §1, with “At the end of the incubation period, all HIV-infected cells have been killed by the replicating virus in the control cultures in the absence of any inhibitor.” left out
(§2) Because of the increasing emergence of drug resistant HIV strains, the present compounds were tested for their potency against clinically isolated HIV strains harboring several mutations.
(§3) As a measure of the broad spectrum activity of the present compounds, the fold resistance (FR) defined as FR=EC50(mutant strain)/EC50(HIV-1 strain LAI).

virus strain S (R13080) = assay: microbe, parasite or virus in culture; format: cell-based, HIV; conditions: for EC50: Human immunodeficiency virus 1, MT4, read-out: HIV-AVE-MT4-MTT-R13080-2-002 pEC50, virus strain S (R13080), MT4 cells, MTT (converted)
Method: as §1, with “At the end of the incubation period, all HIV-infected cells have been killed by the replicating virus in the control cultures in the absence of any inhibitor.” left out
as §2, §3

[1] = MT4, wild type virus (IIIB), MT4 cells, MTT, read-out: HIV-AVE-MT4-MTT-IIIB-2-002 pEC50 (converted)

Compound | HIV-AVE-MT4-MTT-IIIB-2-002 pEC50 (wild type virus (IIIB); wild type virus (IIIB), MT4 cells, MTT) | HIV-AVE-MT4-MTT-R13025-2-002 pEC50 (virus strain F (R13025); virus strain F (R13025), MT4 cells, MTT) | HIV-AVE-MT4-MTT-R13080-2-002 pEC50 (virus strain S (R13080); virus strain S (R13080), MT4 cells, MTT) | EC50 (wild type virus (IIIB); [1]) | EC50 (virus strain F (R13025)) | EC50 (virus strain S (R13080)) | EC50 (wild type virus (IIIB); MT4, read-out: HIV-AVE-MT4-MTT-IIIB-2-002 pEC50 (converted))
CC(C)CN(C[C@@H](O)[C@H](Cc1ccccc1)NC(=O)OCc1cncs1)S(=O)(=O)c1ccc2nc(N(C)C(=O)CN(C)C)sc2c1 [Compound 176] | 8.39 | 7.2 | 6.65 | – | – | – | –
CC(C)CN(C[C@@H](O)[C@H](Cc1ccccc1)NC(=O)O[C@H]1CO[C@H]2OCC[C@H]21)S(=O)(=O)c1ccc2nc(NC(=O)c3cncs3)sc2c1 [Compound 177] | – | – | – | 37.2 nM | 7.59 nM | 49 nM | –
CC(C)CN(C[C@@H](O)[C@H](Cc1ccccc1)NC(=O)O[C@H]1CO[C@H]2OCC[C@H]21)S(=O)(=O)c1ccc2nc(N(CCN3CCCC3)C(=O)OC3CO[C@@H]4OCO[C@H]34)sc2c1 (stereo partly drawn) [Compound 178] | – | – | – | 17.4 nM | 10.7 nM | 33.9 nM | –
CC(C)CN(C[C@@H](O)[C@H](Cc1ccccc1)NC(=O)OCc1cncs1)S(=O)(=O)c1ccc2nc(NC(=O)c3ccc[nH]3)sc2c1 [Compound 179] | – | – | – | 8.91 nM | 57.5 nM | 47.9 nM | –
CC(C)CN(C[C@@H](O)[C@H](Cc1ccccc1)NC(=O)OCc1cncs1)S(=O)(=O)c1ccc2nc(N(C)C(=O)c3ccc[nH]3)sc2c1 [Compound 180] | – | – | – | 155 nM | 891 nM | 10000 nM | –
CC(C)CN(C[C@@H](O)[C@H](Cc1ccccc1)NC(=O)OCc1cncs1)S(=O)(=O)c1ccc2nc(N(C)C(=O)c3cc[nH]c3)sc2c1 [Compound 181] | – | – | – | 33.1 nM | 525 nM | 1820 nM | –
CC(C)CN(C[C@@H](C)[C@H](Cc1ccccc1)NC(=O)OCc1cncs1)S(=O)(=O)c1ccc2nc(N(C)C(=O)c3ccncc3)sc2c1 [Compound 182] | – | – | – | 4.79 nM | 36.3 nM | 170 nM | –
CC(C)CN(C[C@@H](O)[C@H](Cc1ccccc1)NC(=O)OCc1cncs1)S(=O)(=O)c1ccc2nc(NC(=O)C3CCCN(C)C3)sc2c1 (stereo partly drawn) [Compound 183] | – | – | – | 3.55 nM | 1.7 nM | 7.08 nM | –
CC(C)CN(C[C@@H](O)[C@H](Cc1ccccc1)NC(=O)O[C@H]1CO[C@H]2OCC[C@H]21)S(=O)(=O)c1ccc2nc(NCCN3CCCC3)sc2c1 [Compound 184] | – | – | – | – | 4.47 nM | 26.9 nM | 17.4 nM
CC(C)CN(C[C@@H](O)[C@H](Cc1ccccc1)NC(=O)O[C@H]1CO[C@H]2OCC[C@H]21)S(=O)(=O)c1ccc2nc(NCCN)sc2c1 [Compound 185] | – | – | – | 45.7 nM | 33.1 nM | 34.7 nM | –
CCN1CCCC1CNc1nc2ccc(S(=O)(=O)N(CC(C)C)C[C@@H](O)[C@H](Cc3ccccc3)NC(=O)O[C@H]3CO[C@H]4OCC[C@H]43)cc2s1 (stereo partly drawn) [Compound 186] | – | – | – | 6.17 nM | 6.61 nM | 28.8 nM | –
CC(C)CN(C[C@@H](O)[C@H](Cc1ccccc1)NC(=O)C(NC(=O)CNCc1cccc(F)c1)C(C)(C)C)S(=O)(=O)c1ccc2nc(NCCCN(C)C)sc2c1 (stereo partly drawn) [Compound 188] | – | – | – | 200 nM | 93.3 nM | 132 nM | –
CC(C)CN(C[C@@H](O)[C@H](Cc1ccccc1)NC(=O)C(NC(=O)CNCc1cccc(F)c1)C(C)(C)C)S(=O)(=O)c1ccc2nc(NCCN3CCCC3)sc2c1 (stereo partly drawn) [Compound 189] | – | – | – | 44.7 nM | 102 nM | 138 nM | –
